From US20050054702A1, “Method of controlling allergens” (Lonza Inc., priority 2003, published 2005)

Target: T1, Der p 1 allergen (Dermatophagoides pteronyssinus, UniProt P08176)
T1 sequence (P08176 99-320): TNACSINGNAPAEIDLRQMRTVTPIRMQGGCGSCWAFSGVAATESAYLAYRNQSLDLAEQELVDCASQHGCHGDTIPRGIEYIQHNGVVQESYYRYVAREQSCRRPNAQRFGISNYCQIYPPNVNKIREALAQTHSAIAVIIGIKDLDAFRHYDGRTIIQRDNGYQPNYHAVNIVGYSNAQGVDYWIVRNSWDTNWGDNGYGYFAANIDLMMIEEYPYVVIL
Experiment: ELISA method for Der p 1 Allergen (level of allergen recovered after exposure to active)
Format: biochemical
Settings: 10 min exposure to Ag, 62.5 ng/ml Ag in plate
Procedure: Several samples were tested using a standard Enzyme Linked Immunosorbent Assay, (ELISA). The ELISA method for Der p 1 Allergen was utilized. Der p 1 allergen is a standardized allergen. The ELISA method provides quantitative results correlating to the level of allergen recovered in the test.
In the ELISA method for Der p 1 Allergen, the coating antibody is Anti-Der p1 mAb 5H8, supplied as a HPLC purified stock solution at 2 mg/ml in phosphate buffered saline. The coating antibody was diluted in coating buffer (12 μl in 12 ml). 100 μl of the diluted coating antibody was dispensed in each well. The plate was held overnight at 4° C. Then the coating antibody was dumped from the plate and the plate was blotted dry. The well was washed 3 times with PBS-T and blotted dry. Next, 100 μl per well of blocking buffer (BSA PBS-T) was added and incubated for 30 minutes at room temperature. A standard curve (doubling dilutions between 250-0.5 ng/ml) was prepared. The experimental samples were prepared. “Controls” are actives exposed to the plate before addition of Ag. The exposure time was 1 hour. The Ag level used in the plate was 62.5 ng/ml as is for the Ag level in the active. “Samples” are Actives exposed to Ag before addition to the plate. Exposure time was 10 minutes before incubation in the plate for 1 hour. Actives were used in 1:1 ratio with 125 ng/ml Ag (yield 62.5 ng/ml Ag in test plate).
The plate was then washed, filled with standards, blanks, controls and samples and incubated for 1 hour. The detecting antibody was prepared. Next, the plate was washed and the detecting antibody was added to each well. The conjugate was prepared. The plate was washed and the conjugate was added. Just before washing the conjugate from the plate, H2O2 was added to the substrate solution. The plate was washed and the substrate was added. The plate was read when the absorbance of 250 ng/ml antigen standard (at 405 nm) reached 2.0-2.4.
The active levels in the table are listed in ppm and are diluted in half by antigen during testing.

[1] = diluent water, active 15,000 ppm (diluted in half by antigen during testing)
[2] = diluent water, active 10,000 ppm (diluted in half by antigen during testing)

With `CCCCCCCCCCCCN(CCCN)CCCN` [N,N-bis(3-aminopropyl) dodecylamine] the “% Reduction” value [1] was 99% and the “% Reduction” value (diluent water, active 50,000 ppm (diluted in half by antigen during testing)) was 100%.

With `O=C1O[C@H]([C@@H](O)CO)C(O)=C1O` [ascorbic acid] the “% Reduction” value [2] was 91%.

`O=C(O)CC(O)(CC(=O)O)C(=O)O` [citric acid] was tested, and the “% Reduction” value (diluent water, active 5,000 ppm (diluted in half by antigen during testing)) was 100%.

In the case of `CC(=O)C1C(=O)C=C(C)OC1=O` (stereo not drawn) [dehydroacetic acid], the “% Reduction” value (diluent ethoxylated alcohol, active 2,500 ppm (diluted in half by antigen during testing)) is reported as 100%.

With `O=C1O[C@H]([C@H](O)CO)C(O)=C1O` [erythorbic acid] the “% Reduction” value [2] was 96%.

For `CC(O)C(=O)O` (stereo not drawn) [lactic acid], the “% Reduction” value (diluent water, active 3,500 ppm (diluted in half by antigen during testing)) was 95%.

For `O=C([O-])[O-].[Na+].[Na+]` [sodium carbonate], the “% Reduction” value (diluent water, active 2,500 ppm (diluted in half by antigen during testing)) was 100%.

With `O=C([O-])CN(CCN(CC(=O)[O-])CC(=O)[O-])CC(=O)[O-].[Na+].[Na+].[Na+].[Na+]` [tetrasodium ethylene diamine tetraacetate] the “% Reduction” value [1] was 91%.
